Test results taken from patent US8658661B2, “Oxadiazole inhibitors of leukotriene production” (Boehringer Ingelheim International GmbH, priority 2010, dated 2014).

What was measured:
[1] = molecular target: T1, recombinant human FLAP protein (Homo sapiens, UniProt P20292); test: FLAP binding assay (SPA, displacement of [125I]L-691,831); settings: membranes of sf9 cells expressing recombinant human FLAP; [125I]L-691,831 probe; read-out: FLAP binding IC50
T1 construct: made in house; host or cells: Sf9 insect cells (100,000×g membrane pellet used)
T1 sequence (P20292 1-161): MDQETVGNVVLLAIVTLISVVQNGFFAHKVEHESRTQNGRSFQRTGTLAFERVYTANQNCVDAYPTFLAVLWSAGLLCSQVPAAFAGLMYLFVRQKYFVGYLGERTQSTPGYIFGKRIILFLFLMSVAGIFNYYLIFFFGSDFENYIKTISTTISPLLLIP
Protocol: Assessment of Biological Properties 1. Binding Assay
Compounds are assessed for the ability to bind to FLAP in a binding assay that measures compound-specific displacement of an iodinated (^125I) FLAP inhibitor via a Scintillation Proximity Assay format (adapted from S. Charleson et al., Mol. Pharmacol., 1992, 41, 873-879).
Cell pellets produced from sf9 insect cells expressing recombinant human FLAP protein are resuspended in buffer A [15 mM Tris-HCl (pH 7.5), 2 mM MgCl2, 0.3 mM EDTA, 1 mM PMSF]. The cells are lysed with a Dounce homogenizer and the material is centrifuged at 10,000×g for 10 minutes. The supernatant is then collected and centrifuged at 100,000×g for 60 minutes. To prepare membrane protein for an assay, an aliquot of the 100,000×g pellet is resuspended in 1 ml of buffer A, Dounce homogenized, and finally subjected to polytron mixing (30 seconds). Membrane protein (25 μl, 5 μg) is mixed with WGA SPA beads (Amersham) and stirred for 1 h. […] (final concentrations: beads, 200 μg/well; protein, 5 μg/well; [^125I] probe, 0 08 nM/well (17 nCi/well). The plates are shaken for 2 h before reading on a Microbeta plate reader. Non-specific binding is determined by the addition of 10 μM cold L-691,831 compound.

[2] = tested on: synthesis of LTB4 in human whole blood; test: Human whole blood assay (inhibition of LTB4 synthesis, calcimycin stimulated); type: cell-based; settings: heparinized human whole blood, calcimycin 20 μM, plasma LTB4
Protocol: Compounds are additionally tested in a human whole blood assay to determine their ability to inhibit the synthesis of LTB4 in a cellular system. Compounds are combined with heparinized human whole blood and incubated for 15 minutes at 37° C. Calcimycin (20 μM final, prepared in phosphate-buffered saline, pH 7.4) is then added and the mixture is incubated for another 30 minutes at 37° C. The samples are centrifuged for 5 min at low speed (1500×g) and the plasma layer is removed. Plasma LTB4 concentrations are then measured using an antibody-based homogenous time-resolved fluorescence method (CisBio, Bedford, Mass.).

| Structure (SMILES) | IC50 [1] [nM] | IC50 [2] [nM] |
| --- | --- | --- |
| CC(C)(CO)Nc1cnc(-c2nc(C(C)(C)c3ccc(-c4cnc(N)nc4)cc3)no2)cn1 [Example 74, 2-{[5-(3-{2-[4-(2-aminopyrimidin-5-yl)phenyl]propan-2-yl}-1,2,4-oxadiazol-5-yl)pyrazin-2-yl]amino}-2-methylpropan-1-ol] | 17 | 640 |
| CC(C)C(C)(c1ccc(-c2cnc(N)nc2)cc1)c1noc(-c2ccc(Cl)nc2)n1 (centres unmarked) [Example 7, 5-(4-{2-[5-(6-chloropyridin-3-yl)-1,2,4-oxadiazol-3-yl]-3-methylbutan-2-yl}phenyl)pyrimidin-2-amine] | 3.1 | 560 |
| CC(C)C(C)(c1ccc(-c2cnc(N)nc2)cc1)c1noc(-c2ccc(C(F)(F)F)nc2)n1 (centres unmarked) [Example 136, 5-[4-(3-methyl-2-{5-[6-(trifluoromethyl)pyridin-3-yl]-1,2,4-oxadiazol-3-yl}butan-2-yl)phenyl]pyrimidin-2-amine] | 5.4 | 320 |
| Cn1cc(-c2nc(C(C)(C)c3ccc(-c4cnc(N)nc4)cc3)no2)cn1 [Example 68, 5-(4-{2-[5-(1-methyl-1H-pyrazol-4-yl)-1,2,4-oxadiazol-3-yl]propan-2-yl}phenyl)pyrimidin-2-amine] | 6.7 | 93 |
| CC(C)C(C)(c1ccc(-c2cnc(N)nc2)cc1)c1noc(-c2ccnnc2)n1 (centres unmarked) [Example 147, 5-(4-{3-methyl-2-[5-(pyridazin-4-yl)-1,2,4-oxadiazol-3-yl]butan-2-yl}phenyl)pyrimidin-2-amine] | 2.7 | 86 |
| COc1cncc(-c2nc(C(C)(c3ccc(-c4cnc(N)nc4)cc3)C(C)C)no2)c1 (centres unmarked) [Example 13, 5-(4-{2-[5-(5-methoxypyridin-3-yl)-1,2,4-oxadiazol-3-yl]-3-methylbutan-2-yl}phenyl)pyrimidin-2-amine] | 3.6 | 460 |
| C[C@](c1ccc(-c2cnc(N)nc2)cc1)(c1noc(-c2cnn(C3COC3)c2)n1)C1CC1 [Example 55, 5-{4-[(1S)-1-cyclopropyl-1-{5-[1-(oxetan-3-yl)-1H-pyrazol-4-yl]-1,2,4-oxadiazol-3-yl}ethyl]phenyl}pyrimidin-2-amine] | 11 | 200 |
| CCC(C)(c1ccc(-c2cnc(N)nc2)cc1)c1noc(-c2ccc(C)nc2)n1 (centres unmarked) [Example 143, 5-(4-{2-[5-(6-methylpyridin-3-yl)-1,2,4-oxadiazol-3-yl]butan-2-yl}phenyl)pyrimidin-2-amine] | 4.1 | 360 |
| CC(C)(O)CNc1cnc(-c2nc([C@@](C)(c3ccc(-c4cnc(N)nc4)cc3)C3CC3)no2)cn1 [Example 50, 1-{[5-(3-{(1R)-1-[4-(2-aminopyrimidin-5-yl)phenyl]-1-cyclopropylethyl}-1,2,4-oxadiazol-5-yl)pyrazin-2-yl]amino}-2-methylpropan-2-ol] | 1.3 | 95 |
| CC(C)(CO)Nc1cnc(-c2nc(C(C)(c3ccc(-c4cnc(N)nc4)cc3)C3CC3)no2)cn1 (centres unmarked) [Example 45, 2-{[5-(3-{1-[4-(2-aminopyrimidin-5-yl)phenyl]-1-cyclopropylethyl}-1,2,4-oxadiazol-5-yl)pyrazin-2-yl]amino}-2-methylpropan-1-ol] | 3.1 | 140 |
| CC(C)[C@](C)(c1ccc(-c2cnc(N)nc2)cc1)c1noc(-c2ccn[nH]2)n1 [Example 23, 5-(4-{(2R)-3-methyl-2-[5-(1H-pyrazol-5-yl)-1,2,4-oxadiazol-3-yl]butan-2-yl}phenyl)pyrimidin-2-amine] | 6.9 | 170 |
| Cn1cc(-c2nc([C@@H](c3ccc(-c4cnc(N)nc4)cc3)C(C)(C)C)no2)cn1 [Example 65, 5-(4-{(1R)-2,2-dimethyl-1-[5-(1-methyl-1H-pyrazol-4-yl)-1,2,4-oxadiazol-3-yl]propyl}phenyl)pyrimidin-2-amine] | 75 | 1500 |

More lines, now with the values ahead:

| IC50 [1] [nM] | IC50 [2] [nM] | Structure (SMILES) |
| --- | --- | --- |
| 4.9 | 51 | C[C@@](c1ccc(-c2cnc(N)nc2)cc1)(c1noc(-c2cnn(C3CC3)c2)n1)C1CC1 [Example 271, 5-(4-{(R)-1-Cyclopropyl-1-[5-(1-cyclopropyl-1H-pyrazol-4-yl)-[1,2,4]oxadiazol-3-yl]-ethyl}-phenyl)-pyrimidin-2-ylamine] |
| 16 | > 5000 | CN(C)C(=O)Cn1cc(-c2nc([C@@](C)(c3ccc(-c4cnc(N)[nH]c4=O)cc3)C3CC3)no2)cn1 [Example 197, 2-[4-(3-{(R)-1-[4-(2-amino-6-oxo-1,6-dihydro-pyrimidin-5-yl)-phenyl]-1-cyclopropyl-ethyl}-[1,2,4]oxadiazol-5-yl)-pyrazol-1-yl]-N,N-dimethyl-acetamide] |
| 2 | 36 | CC(C)C(C)(c1ccc(-c2cnc(N)nc2)cc1)c1noc(-c2cnn(C3COC3)c2)n1 (centres unmarked) [Example 161, 5-[4-(3-methyl-2-{5-[1-(oxetan-3-yl)-1H-pyrazol-4-yl]-1,2,4-oxadiazol-3-yl}butan-2-yl)phenyl]pyrimidin-2-amine] |
| 3.4 | 55 | COCCn1cc(-c2nc(C(C)(c3ccc(-c4cnc(N)nc4)cc3)C(C)C)no2)cn1 (centres unmarked) [Example 158, 5-[4-(2-{5-[1-(2-methoxyethyl)-1H-pyrazol-4-yl]-1,2,4-oxadiazol-3-yl}-3-methylbutan-2-yl)phenyl]pyrimidin-2-amine] |
| 4.6 | 180 | Cc1nc(C)c(-c2nc(C(C)(c3ccc(-c4cnc(N)nc4)cc3)C(C)C)no2)s1 (centres unmarked) [Example 153, 5-(4-{2-[5-(2,4-dimethyl-1,3-thiazol-5-yl)-1,2,4-oxadiazol-3-yl]-3-methylbutan-2-yl}phenyl)pyrimidin-2-amine] |
| 370 | > 5000 | CCNc1ncc(-c2ccc(C(C)(c3noc(-c4cnn(CC(=O)N(C)C)c4)n3)C3CC3)cc2)cn1 (centres unmarked) [Example 249, 2-[4-(3-{1-Cyclopropyl-1-[4-(2-ethylamino-pyrimidin-5-yl)-phenyl]-ethyl}-[1,2,4]oxadiazol-5-yl)-pyrazol-1-yl]-N,N-dimethyl-acetamide] |
| 48 | 51 | COCCn1cc(-c2nc([C@@](C)(c3ccc(-c4cnc(N)c(C)c4)cc3)C3CC3)no2)cn1 [Example 188, 5-[4-((R)-1-Cyclopropyl-1-{5-[1-(2-methoxy-ethyl)-1H-pyrazol-4-yl]-[1,2,4]oxadiazol-3-yl}-ethyl)-phenyl]-3-methyl-pyridin-2-ylamine] |
| 15 | 190 | Cc1nc(N)ncc1-c1ccc(C(C)(c2noc(-c3cnn(CC(=O)N(C)C)c3)n2)C2CC2)cc1 (centres unmarked) [Example 240, 2-[4-(3-{1-[4-(2-Amino-4-methyl-pyrimidin-5-yl)-phenyl]-1-cyclopropyl-ethyl}-[1,2,4]oxadiazol-5-yl)-pyrazol-1-yl]-N,N-dimethyl-acetamide] |
| 13 | 200 | CC(C)C(C)(c1ccc(-c2cnc(N)nc2)cc1)c1noc(NCC2CCOCC2)n1 (centres unmarked) [Example 201, 5-[4-(1,2-Dimethyl-1-{5-[(tetrahydro-pyran-4-ylmethyl)-amino]-[1,2,4]oxadiazol-3-yl}-propyl)-phenyl]-pyrimidin-2-ylamine] |
| 23 | 740 | CC(C)C(C)(c1ccc(-c2cnc(N)nc2)cc1)c1noc(N2CCN(C(N)=O)CC2)n1 (centres unmarked) [Example 192, 4-(3-{1-[4-(2-Amino-pyrimidin-5-yl)-phenyl]-1,2-dimethyl-propyl} [1,2,4]oxadiazol-5-yl)-piperazine-1-carboxylic acid amide] |
| 12 | 450 | C[C@](c1ccc(-c2cnc(N)cn2)cc1)(c1noc(-c2cnc(N3CCNCC3)cn2)n1)C1CC1 [Example 214, 5-(4-{(S)-1-Cyclopropyl-1-[5-(3,4,5,6-tetrahydro-2H-[1,2′]bipyrazinyl-5′-yl)-[1,2,4]oxadiazol-3-yl]-ethyl}-phenyl)-pyrazin-2-ylamine] |
| 2.2 | 180 | Cc1cc(-c2ccc([C@](C)(c3noc(-c4cnn(CC(=O)N(C)C)c4)n3)C3CC3)cc2)cnc1N [Example 178, 2-[4-(3-{(R)-1-[4-(6-Amino-5-methyl-pyridin-3-yl)-phenyl]-1-cyclopropyl-ethyl}-[1,2,4]oxadiazol-5-yl)-pyrazol-1-yl]-N,N-dimethyl-acetamide] |
| 10 | 80 | CC(c1ccc(-c2ccc(N)nc2)cc1)(c1noc(N2CCC(O)CC2)n1)C1CC1 (centres unmarked) [Example 248, 1-(3-{1-[4-(6-Amino-pyridin-3-yl)-phenyl]-1-cyclopropyl-ethyl}-[1,2,4]oxadiazol-5-yl)-piperidin-4-ol] |
